Assay results from paper PMC6433232, “Targeting mitochondria in cancer therapy could provide a basis for the selective anti-cancer activity” (PLoS ONE, 2019).

system: primary acute myeloid leukemia (AML) cells obtained from patients; test: Kinase inhibitor library screening with and without NSC130362, primary AML cells; type: cell-based, Human; conditions: ratio of EC50 for inhibitor to EC50 for inhibitor/NSC130362 combination; NSC130362 10 μM; Screen N 1

Row | EC50 decrease, fold (Screen N 1) | SMILES
1 | 9.7 fold | O=C(NC1CCNCC1)c1[nH]ncc1NC(=O)c1c(Cl)cccc1Cl [AT7519]
2 | 0.9 fold | O=C(NOCC1CC1)c1ccc(F)c(F)c1Nc1ccc(I)cc1Cl [CI-1040 (PD184352)]
3 | 4.0 fold | Cn1c(=O)n(-c2ccc(C(C)(C)C#N)cc2)c2c3cc(-c4cnc5ccccc5c4)ccc3ncc21 [BEZ235]
4 | 2.6 fold | Cn1c(Nc2ccc(C(F)(F)F)cc2)nc2cc(Oc3ccnc(-c4ncc(C(F)(F)F)[nH]4)c3)ccc21 [RAF265 (CHIR-265)]
5 | 0.0179 fold | COc1cc(N2CCC(N3CCN(C)CC3)CC2)ccc1Nc1ncc(Cl)c(Nc2ccccc2P(C)(C)=O)n1 [Brigatininb (AP-26113)]
6 | 1.0 fold | CNC(=O)c1cc(Oc2ccc(NC(=O)Nc3ccc(Cl)c(C(F)(F)F)c3)c(F)c2)ccn1 [Regorafenib (BAY 73-4506)]
7 | 0.0632 fold | CC(C)n1nc(-c2ccc3oc(N)nc3c2)c2c(N)ncnc21 [INK-128]
8 | 10.6 fold | C=CCNC1=C2C[C@@H](C)C[C@H](OC)[C@H](O)[C@@H](C)/C=C(\C)[C@H](OC(N)=O)[C@@H](OC)/C=C\C=C(/C)C(=O)NC(=CC1=O)C2=O [17-AAG (Tanespimycin)]
9 | 6.0 fold | CC(C)(C)c1cnc(CSc2cnc(NC(=O)C3CCNCC3)s2)o1 [SNS-032 (BMS-387032)]
10 | 1.0 fold | COc1cc(Nc2ncc3c(n2)-c2ccc(Cl)cc2C(c2c(F)cccc2OC)=NC3)ccc1C(=O)O [Alisertib (MLN8237)]
11 | 3.2 fold | COc1cc2nccc(Oc3ccc(NC(=O)C4(C(=O)Nc5ccc(F)cc5)CC4)cc3)c2cc1OC [Cabozantinib (XL-184)]
12 | 1.0 fold | CCCS(=O)(=O)Nc1ccc(F)c(C(=O)c2c[nH]c3ncc(-c4ccc(Cl)cc4)cc23)c1F [Vemurafenib (PLX-4032)]
13 | 0.229 fold | CCS(=O)(=O)O.COC(=O)c1ccc2c(c1)NC(=O)/C2=C(\Nc1ccc(N(C)C(=O)CN2CCN(C)CC2)cc1)c1ccccc1 [Vargetef]
14 | 28.6 fold | Nc1ccn([C@@H]2O[C@H](CO)[C@@H](O)[C@@H]2O)c(=O)n1 [Cytarabine]
15 | 0.165 fold | CCn1c(-c2nonc2N)nc2c(C#CC(C)(C)O)ncc(OC[C@H]3CCCNC3)c21 [GSK690693]
16 | 1.1 fold | Cc1[nH]c(/C=C2\C(=O)Nc3ccc(S(=O)(=O)Cc4c(Cl)cccc4Cl)cc32)c(C)c1C(=O)N1CCC[C@@H]1CN1CCCC1 [PHA-665752]

same assay, conditions: ratio of EC50 for inhibitor to EC50 for inhibitor/NSC130362 combination; NSC130362 10 μM; Screen N 2

Row | EC50 decrease, fold (Screen N 2) | SMILES
17 | 1.0 fold | Oc1ccc([C@H]2COc3cc(O)ccc3C2)cc1 [AUS-131]
18 | 0.8 fold | Cc1noc2c1-c1ccccc1C(c1ccc(Cl)cc1)=N[C@H]2CC(N)=O [CPI-0610]
19 | 2.2 fold | O=C(NC1CCNCC1)c1[nH]ncc1NC(=O)c1c(Cl)cccc1Cl [AT7519]
20 | 1.0 fold | O=C(NOCC1CC1)c1ccc(F)c(F)c1Nc1ccc(I)cc1Cl [CI-1040 (PD184352)]
21 | 0.7 fold | Cn1c(=O)n(-c2ccc(C(C)(C)C#N)cc2)c2c3cc(-c4cnc5ccccc5c4)ccc3ncc21 [BEZ235]
22 | 1.0 fold | C#Cc1cccc(Nc2ncnc3cc(OCCOC)c(OCCOC)cc23)c1 [Erlotinib]
23 | 0.8 fold | Cn1c(Nc2ccc(C(F)(F)F)cc2)nc2cc(Oc3ccnc(-c4ncc(C(F)(F)F)[nH]4)c3)ccc21 [RAF265 (CHIR-265)]
24 | 1.2 fold | CNC(=O)c1cc(Oc2ccc(NC(=O)Nc3ccc(Cl)c(C(F)(F)F)c3)c(F)c2)ccn1 [Regorafenib (BAY 73-4506)]
25 | 0.9 fold | CC(C)n1nc(-c2ccc3oc(N)nc3c2)c2c(N)ncnc21 [INK-128]
26 | 0.8 fold | O=C(Nc1ccc2[nH]nc(-c3ccncc3)c2c1)[C@@H]1CCN(CC(=O)N2CCN(c3ccc(-c4ncccn4)cc3)CC2)C1 [SCH-772984]
27 | 12.1 fold | C=CCNC1=C2C[C@@H](C)C[C@H](OC)[C@H](O)[C@@H](C)/C=C(\C)[C@H](OC(N)=O)[C@@H](OC)/C=C\C=C(/C)C(=O)NC(=CC1=O)C2=O [17-AAG (Tanespimycin)]
28 | 1.0 fold | O=C(Nc1cccc2cccnc12)c1ccc(N2C(=O)[C@@H]3[C@H](C2=O)[C@@H]2C=C[C@H]3C2)cc1 [IWR1]
29 | 0.9 fold | CC(C)(C)c1cnc(CSc2cnc(NC(=O)C3CCNCC3)s2)o1 [SNS-032 (BMS-387032)]
30 | 1.0 fold | COc1cc(Nc2ncc3c(n2)-c2ccc(Cl)cc2C(c2c(F)cccc2OC)=NC3)ccc1C(=O)O [Alisertib (MLN8237)]
31 | 1.0 fold | COc1cc2nccc(Oc3ccc(NC(=O)C4(C(=O)Nc5ccc(F)cc5)CC4)cc3)c2cc1OC [Cabozantinib (XL-184)]
32 | 1.0 fold | CCCS(=O)(=O)Nc1ccc(F)c(C(=O)c2c[nH]c3ncc(-c4ccc(Cl)cc4)cc23)c1F [Vemurafenib (PLX-4032)]
33 | 1.0 fold | CCS(=O)(=O)O.COC(=O)c1ccc2c(c1)NC(=O)/C2=C(\Nc1ccc(N(C)C(=O)CN2CCN(C)CC2)cc1)c1ccccc1 [Vargetef]
34 | 1.0 fold | Nc1ccn([C@@H]2O[C@H](CO)[C@@H](O)[C@@H]2O)c(=O)n1 [Cytarabine]
35 | 1.0 fold | CCn1c(-c2nonc2N)nc2c(C#CC(C)(C)O)ncc(OC[C@H]3CCCNC3)c21 [GSK690693]
36 | 1.0 fold | Cc1[nH]c(/C=C2\C(=O)Nc3ccc(S(=O)(=O)Cc4c(Cl)cccc4Cl)cc32)c(C)c1C(=O)N1CCC[C@@H]1CN1CCCC1 [PHA-665752]

same assay, conditions: ratio of EC50 for inhibitor to EC50 for inhibitor/NSC130362 combination; NSC130362 10 μM; Screen N 3

Row | EC50 decrease, fold (Screen N 3) | SMILES
37 | 1.1 fold | O=C(NC1CCNCC1)c1[nH]ncc1NC(=O)c1c(Cl)cccc1Cl [AT7519]
38 | 0.0667 fold | O=C(NOCC1CC1)c1ccc(F)c(F)c1Nc1ccc(I)cc1Cl [CI-1040 (PD184352)]
39 | 8.8 fold | Cn1c(=O)n(-c2ccc(C(C)(C)C#N)cc2)c2c3cc(-c4cnc5ccccc5c4)ccc3ncc21 [BEZ235]
40 | 1.4 fold | Nc1cccc2c1CN(C1CCC(=O)NC1=O)C2=O (stereo not shown) [Lenalidomide]
41 | 0.0556 fold | Cn1c(Nc2ccc(C(F)(F)F)cc2)nc2cc(Oc3ccnc(-c4ncc(C(F)(F)F)[nH]4)c3)ccc21 [RAF265 (CHIR-265)]
42 | 1.8 fold | COc1cc(N2CCC(N3CCN(C)CC3)CC2)ccc1Nc1ncc(Cl)c(Nc2ccccc2P(C)(C)=O)n1 [Brigatininb (AP-26113)]
43 | 0.0284 fold | CNC(=O)c1cc(Oc2ccc(NC(=O)Nc3ccc(Cl)c(C(F)(F)F)c3)c(F)c2)ccn1 [Regorafenib (BAY 73-4506)]
44 | 0.0858 fold | CC(C)n1nc(-c2ccc3oc(N)nc3c2)c2c(N)ncnc21 [INK-128]
45 | 612.9 fold | C=CCNC1=C2C[C@@H](C)C[C@H](OC)[C@H](O)[C@@H](C)/C=C(\C)[C@H](OC(N)=O)[C@@H](OC)/C=C\C=C(/C)C(=O)NC(=CC1=O)C2=O [17-AAG (Tanespimycin)]
46 | 14.0 fold | CC(C)(C)c1cnc(CSc2cnc(NC(=O)C3CCNCC3)s2)o1 [SNS-032 (BMS-387032)]
47 | 0.3 fold | COc1cc(Nc2ncc3c(n2)-c2ccc(Cl)cc2C(c2c(F)cccc2OC)=NC3)ccc1C(=O)O [Alisertib (MLN8237)]
48 | 0.259 fold | COc1cc2nccc(Oc3ccc(NC(=O)C4(C(=O)Nc5ccc(F)cc5)CC4)cc3)c2cc1OC [Cabozantinib (XL-184)]
49 | 0.14 fold | CCS(=O)(=O)O.COC(=O)c1ccc2c(c1)NC(=O)/C2=C(\Nc1ccc(N(C)C(=O)CN2CCN(C)CC2)cc1)c1ccccc1 [Vargetef]
50 | 0.132 fold | Nc1ccn([C@@H]2O[C@H](CO)[C@@H](O)[C@@H]2O)c(=O)n1 [Cytarabine]
51 | 1.1 fold | CCn1c(-c2nonc2N)nc2c(C#CC(C)(C)O)ncc(OC[C@H]3CCCNC3)c21 [GSK690693]
52 | 0.226 fold | Cc1[nH]c(/C=C2\C(=O)Nc3ccc(S(=O)(=O)Cc4c(Cl)cccc4Cl)cc32)c(C)c1C(=O)N1CCC[C@@H]1CN1CCCC1 [PHA-665752]
